Assay results as given in patent US7601850B2, “Phenyl-thiophene type vitamin D receptor modulators” (Eli Lilly and Company, priority 2002, dated 2009).

Key:
RXR-VDR heterodimer = biological target: T1, RXR-VDR heterodimer (Homo sapiens, UniProt P11473); experiment: RXR-VDR heterodimerization assay (SaOS-2 cells); assay type: cell-based
T1 construct: Add the Gal-4-RXR-DEF and VP16-VDR-LBD; expressed in transfected cells; host or cells: SaOS-2 cells
T1 sequence (P11473 127-423 limits assumed): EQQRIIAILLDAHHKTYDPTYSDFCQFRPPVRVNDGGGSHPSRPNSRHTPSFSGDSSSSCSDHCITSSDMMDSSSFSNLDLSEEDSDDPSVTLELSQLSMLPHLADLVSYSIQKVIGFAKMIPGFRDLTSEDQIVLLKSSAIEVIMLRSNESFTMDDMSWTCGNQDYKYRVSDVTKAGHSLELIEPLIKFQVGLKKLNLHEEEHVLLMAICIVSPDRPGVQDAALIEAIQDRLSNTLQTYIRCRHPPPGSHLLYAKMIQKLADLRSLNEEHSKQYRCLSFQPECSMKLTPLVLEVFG
T1 sequence (P19793 201-462 partner limits assumed): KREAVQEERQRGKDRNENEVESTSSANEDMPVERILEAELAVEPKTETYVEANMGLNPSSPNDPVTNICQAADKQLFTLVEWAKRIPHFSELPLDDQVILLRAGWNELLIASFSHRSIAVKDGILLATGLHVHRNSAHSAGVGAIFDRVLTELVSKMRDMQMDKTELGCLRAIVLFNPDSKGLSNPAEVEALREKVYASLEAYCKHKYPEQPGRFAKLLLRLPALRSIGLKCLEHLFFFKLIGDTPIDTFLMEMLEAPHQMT
From the text: 2. The RXR-VDR heterodimerization (SaOS-2 cells) test is described in the “Assay” section of the Description, infra.
1. The RXR-VDR heterodimerAssay:
This assay provides the VDR activity of a test compound.
(1) Materials and Method for RXR-VDR Heterodimerization Assay:
Luciferase Assay Reagent: • Use Steady-Glo Luciferase Reagent from Promega (Cat # E2550) Consists of: • a. E2533 Assay Substrate, lyopholized product and • b. […] DAY 2: Transfection Step 1: DNA and Media • Add plain DMEM media to tubes for mixing the DNA • Add the Reporter gene pFR-LUC • Add the Gal-4-RXR-DEF and VP16-VDR-LBD Step 2: FuGENE and Media • Prepare plain DMEM media in a ubes for mixing FuGENE • Add FuGENE 6 Transfection Reagent • Incubate Step 3: FuGENE, DNA and Media Complex • Add FuGENE Media complex from step 2 to DNA Media complex from step 1 • Incubate Step 4: FuGENE, DNA and Media Complex to-well plate • Add FuGENE-DNA-Media complex from step 3 to each plate • Incubate. […] Day 4: Luciferase Assay • Read the plates after drug treatment • Remove part of media from all the wells and leave remainder • Add Steady-Glo Luciferase Reagent mixture/wells • Incubate • Count each well using a Luminescence counter, Top Count NXT by Packard
Set a delay between plates to reduce the background.

VDR = biological target: T2, VDR (Homo sapiens, UniProt P11473); experiment: VDR CTF (Caco-2 cell co-transfection assay); assay type: cell-based; conditions: Caco-2 cells
T2 construct: the receptor expression vector pGa14-VDR-LBD (10 ng); expressed in transfected cells; host or cells: Caco-2 cells
T2 sequence (P11473 127-423 limits assumed): T1 sequence (P11473 127-423 limits assumed)
Procedure: 3. The VDR CTF (Caco-2 cells) test is described in the “Assay” section of the Description, infra.
2. The Caco-2 Cell Co-Transfection Assay:
The Caco-2 cell assay is an indicator for the undesirable condition of hypercalcemia. This co-transfection assay is a surrogate assay for in vivo calcemic activity of VDR ligands. […] Preferred assay results are greater than 1000 nM.
(2) Materials and Method for The Caco-2 Cell Assay:
Caco-2 cells, grown in phenol red free, DMEM (Invitrogen, Carlsbad, Calif.) containing 10% charcoal-stripped FCS (Hyclone, Logan, Utah), were transfected with Fugene 6 reagent (Roche Diagnostics, Indianapolis, Ind.). Cells (5000/well) were plated 18 h before transfection in a 96 well plate. The Cells were transfected with Gal-4-responsive reporter pFRLuc (150 ng, Stratagene, La Jolla Calif.) and the receptor expression vector pGa14-VDR-LBD (10 ng), along with Fugene 6 reagent (0.2 µl/well). The DNA-Fugene complex was formed by incubating the mixture for 30 min at room temperature. The cells were transfected in triplicate for 5 h, and treated with various concentrations of VDR ligands (form 0.01 nM to 10,000 nM concentration range) 18 h post-transfection. The luciferase activity was quantified using Steady-Glo reagent kit (Promega, Madison, Wis.) as per manufacturer's specifications.

rat osteocalcin promoter = experiment: OCN (osteocalcin) promoter assay in RG-15 (ROS 17/2.8) cells; assay type: cell-based
Method in brief: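 Rat osteoblast-like RG-15 (ROS 17/2.8) cells stably carry the rat osteocalcin promoter fused to luciferase. They were treated with compounds for 48 h in medium with 2% FBS and 0.01% DMSO. EC50 was derived from luciferase activity in cell lysates.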

[1] = Mouse hypercalcemia assay (six day, serum ionized calcium); assay type: in vivo

CCCc1cc(C(CC)(CC)c2ccc(C(=O)O)s2)ccc1OCC(O)C(C)(C)C (single isomer, unassigned) [Ex. 95, 3′-[4-(2-hydroxy-3,3-dimethylbutoxy)-3-n-propylphenyl]-3′-[5-carboxy-thiophen-2-yl]pentane]
EC50 (RXR-VDR heterodimer): 421 nM | EC50 (VDR): 1180 nM | EC50 (rat osteocalcin promoter): 21.4 nM | Mouse Hypercal [1]: >6000 µg/kg/day
